Test results from ChEMBL document CHEMBL5726154, “Substituted heterocyclic derivative, preparation method and use thereof” (2019).
pIC50: −log10 of the molar value.

Molecular target: T1, N-acylethanolamine-hydrolyzing acid amidase (Homo sapiens, UniProt Q02083)
T1 sequence (Q02083 whole entry): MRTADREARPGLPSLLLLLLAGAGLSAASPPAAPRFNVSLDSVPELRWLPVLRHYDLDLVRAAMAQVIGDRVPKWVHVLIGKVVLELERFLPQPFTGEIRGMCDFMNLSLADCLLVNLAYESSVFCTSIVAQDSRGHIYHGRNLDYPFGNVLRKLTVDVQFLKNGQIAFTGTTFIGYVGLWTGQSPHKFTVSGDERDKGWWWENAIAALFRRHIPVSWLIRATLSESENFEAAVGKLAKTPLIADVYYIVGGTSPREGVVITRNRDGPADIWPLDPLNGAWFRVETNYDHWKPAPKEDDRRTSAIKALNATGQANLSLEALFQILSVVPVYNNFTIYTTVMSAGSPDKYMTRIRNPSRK
Assay: Determining Endocannabinoid Hydrolase Activity: In the Experimental example, endocannabinoid hydrolases used were Fatty Acid Amide Hydrolase (FAAH) and N-acylethanolamide hydrolyzing acid amidase (NAAA), which were prepared by the method described in the document (PMCID: PMC3423427, PMC3723234, PMC2692831, PMC3382457). The preparation method was as followed: a plasmid (pCDNA3.1/NAAA or pCDNA3.1/FAAH) carrying a whole NAAA/FAAH gene was constructed, wherein the plasmid carried Cytomegalovirus (CMV) promoter and Neomycin selectable gene; the plasmid was transformed into HEK-293 cell via lipid medium, stable cell lines expressing NAAA/FAAH at a high level were obtained by G418 screening and Western-blot method. HEK-293 recombinant cells were cultured and collected, washed with PBS for 2-3 times, and ultrasonically treated in 20 mM Tris-HCl containing 0.32 M sucrose, then repeatedly frozen and thawed twice, and then centrifuged at 4° C., 800 g for 15 min. The supernatant (i.e., the desired protein) was collected, the protein concentration was determined by BCA method, and the protein was diluted to a concentration of 1 mg/mL, and sub-packaged and stored in a refrigerator at −80° C. for further use.In the Experimental example, PBS solution used was prepared as followed: 8 g NaCl, 0.2 g KCl, 1.44 g Na2HPO4, and 0.24 g KH2PO4 were dissolved in 1 L ultrapure water, and the resultant solution was subjected to moist heat sterilization and stored at 4° C.30 μL (1 mg/mL) endocannabinoid hydrolase was added to a sample vial, and 2 μL DMSO (Blank control group) or a different concentration of a test compound (Compounds 1-46 prepared in the Examples according to the invention) was further added. The reaction was carried out at 37° C. for 10 min. 170 μL buffer (the buffer consisted of 50 mM disodium Hydrogen Phosphate, 0.1% Triton X-100, 3 mM DTT, 150 μL) containing enzymatic hydrolysis substrate (the substrate was a heptadecenoyl ethanolamine containing a double bond and 17 carbon atoms, abbreviated as 17:1 FAE) was further added, wherein the concentration of 17:1 FAE was 5 μM. The reaction was carried out at 37° C. for 30 min, and 200 μL methanol solution containing internal standard (the internal standard was margaric acid, at a concentration of 1 nmol) was then added to stop the reaction. LC-MS was used to determine the yield of the hydrolysate 17:1 FA (i.e., a heptadecenoic acid containing a double bond) of 17:1 FAE, then a graph was plotted with Graphpad Prism 5. Thereby, the IC50 of the test compound on endocannabinoid hydrolase was determined.By the method above, the inhibitory effects of the Compounds 1-46 prepared in the invention on NAAA and FAAH were determined.

Structure (SMILES) | pIC50
CCCCCCCCCCCCCCCC(=O)N1CCOC1=O | 4.33
CCCCCCCCCCCCCCCC(=O)N1CCNC1=O | 5.27
O=C1OCCN1C(=O)c1cccc(-c2ccccc2)c1 | 5.02
O=C1OCCN1C(=O)c1ccc(Oc2cccc(Cl)c2)cc1 | 6.43
O=C(CCCCCc1ccc2cc(F)ccc2c1)N1CCOC1=O | 5.24
C[C@@H]1COC(=O)N1C(=O)CCCCCc1ccccc1 | 6.04
CC(=O)C[C@@H]1COC(=O)N1C(=O)CCCCCc1ccc(C)cc1 | 6.35
O=C(CCCCCc1ccc2ccccc2c1)N1CCOC1=O | 6.04
O=C1OCCN1C(=O)c1ccc(OCc2ccccc2)cc1 | 5.47
CC(=O)C[C@@H]1COC(=O)N1C(=O)CCCCCc1cccc(C)c1 | 6.42
O=C1OCCN1C(=O)c1cccc(OCc2ccccc2)c1 | 4.10
O=C(CCCCc1cccc(Cl)c1)N1CCOC1=O | 6.43

Other lines, results leading:

pIC50 | Structure (SMILES)
6.07 | O=C(CCCCc1ccc(F)cc1)N1CCOC1=O
4.95 | O=C(CCCCc1ccccc1)N1CCOC1=O
6.89 | O=C(CCCCCC1CCCNC1)N1CCOC1=O (stereo not given)
4.63 | O=C(CCCCCc1c[nH]c2ccccc12)N1CCOC1=O
4.68 | O=C(CCCCCCCc1ccccc1)N1CCOC1=O
6.60 | O=C(CCCCCc1cccc(F)c1)N1CCOC1=O
5.03 | O=C(CCCCCCc1ccccc1)N1CCOC1=O
6.74 | O=C(CCCCCC1CCCCC1)N1CCOC1=O
6.44 | O=C(CCCCCc1ccoc1)N1CCOC1=O
6.68 | O=C(CCCCCc1ccccc1)N1CCOC1=O
5.29 | O=C(CCCCCc1ccc(Cl)cc1)N1CCOC1=O
6.47 | O=C(CCCCCc1ccsc1)N1CCOC1=O
5.66 | O=C(CCCCCCc1ccc(Cl)cc1Cl)N1CCOC1=O
